Laboratory results taken from ChEMBL document CHEMBL1149028, “Isolation and structure of cephalostatins 10 and 11” (1994).
Values after ≈ are worked out from the molar mass of the structure shown.

Tests used:
Assay type in all cases: functional
P388 = experiment: Growth inhibition of mouse P388 cells; conditions: read-out: ED50 (the source's name)
SF-539 = experiment: Growth inhibition of human SF539 cells
UACC-257 = experiment: Growth inhibition of human UACC257 cells
MOLT-4 = experiment: Growth inhibition of human MOLT4 cells
[1] = Growth inhibition of human 786-O cells; conditions: 786-0
SN12C = experiment: Growth inhibition of human SN12C cells
SW-620 = experiment: Growth inhibition of human SW620 cells
OVCAR-8 = experiment: Growth inhibition of human OVCAR8 cells; conditions: OVCAR-8, read-out: pGI50 (converted)
KM-20L2 = experiment: Growth inhibition of human KM20L2 cells
COLO 205 = experiment: Growth inhibition of human COLO205 cells
A498 = experiment: Growth inhibition of human A498 cells
HCC 2998 = experiment: Growth inhibition of human HCC2998 cells
HL-60(TB) = experiment: Growth inhibition of human HL-60(TB) cells
SK-MEL-5 = experiment: Growth inhibition of human SK-MEL-5 cells
EKVX = experiment: Growth inhibition of human EKVX cells
SNB-75 = experiment: Growth inhibition of human SNB75 cells
[2] = Growth inhibition of human LXFL529 cells; conditions: LXFL 529
OVCAR-3 = experiment: Growth inhibition of human OVCAR-3 cells
HOP-92 = experiment: Growth inhibition of human HOP92 cells
RPMI-8226 = experiment: Growth inhibition of human RPMI8226 cells
HOP-62 = experiment: Growth inhibition of human HOP62 cells
CAKI-1 = experiment: Growth inhibition of human Caki1 cells
UO-31 = experiment: Growth inhibition of human UO31 cells
ACHN = experiment: Growth inhibition of human ACHN cells
SF-268 = experiment: Growth inhibition of human SF268 cells
SNB-19 = experiment: Growth inhibition of human SNB19 cells
KM12 = experiment: Growth inhibition of human KM12 cells
LOX IMVI = experiment: Growth inhibition of human LOXIMVI cells
U-251 = experiment: Growth inhibition of human U251 cells
NCI-H522 = experiment: Growth inhibition of human NCI-H522 cells
CCRF-CEM = experiment: Growth inhibition of human CCRF-CEM cells
SK-MEL-28 = experiment: Growth inhibition of human SK-MEL-28 cells
SR = experiment: Growth inhibition of human SR cells
HT-29 = experiment: Growth inhibition of human HT-29 cells
IGROV-1 = experiment: Growth inhibition of human IGROV1 cells
SF-295 = experiment: Growth inhibition of human SF295 cells
OVCAR-4 = experiment: Growth inhibition of human OVCAR4 cells
SK-OV-3 = experiment: Growth inhibition of human SKOV3 cells
HCT-116 = experiment: Growth inhibition of human HCT116 cells
M19-MEL = experiment: Growth inhibition of human M19-MEL cells
DLD-1 = experiment: Growth inhibition of human DLD1 cells
TK-10 = experiment: Growth inhibition of human TK10 cells
K562 = experiment: Growth inhibition of human K562 cells
HCT-15 = experiment: Growth inhibition of human HCT15 cells
HOP-18 = experiment: Growth inhibition of human HOP18 cells
Malme-3M = experiment: Growth inhibition of human MALME-3M cells
DMS-273 = experiment: Growth inhibition of human DMS273 cells
DMS-114 = experiment: Growth inhibition of human DMS114 cells
NCI-H226 = experiment: Growth inhibition of human NCI-H226 cells
NCI-H23 = experiment: Growth inhibition of human NCI-H23 cells
XF498 = experiment: Growth inhibition of human XF498 cells
SNB-78 = experiment: Growth inhibition of human SNB78 cells
NCI-H322M = experiment: Growth inhibition of human NCI-H322M cells
A549 = experiment: Growth inhibition of human A549 cells
RXF 393 = experiment: Growth inhibition of human RXF393 cells
UACC-62 = experiment: Growth inhibition of human UACC62 cells
M14 = experiment: Growth inhibition of human M14 cells
OVCAR-5 = experiment: Growth inhibition of human OVCAR5 cells
NCI-H460 = experiment: Growth inhibition of human NCI-H460 cells
SK-MEL-2 = experiment: Growth inhibition of human SK-MEL-2 cells

Question: With `CO[C@H]1c2nc3c(nc2C[C@@H]2CC[C@H]4C5=CC[C@@H]6[C@@H](C)[C@]7(OC[C@]56C(=O)C[C@]4(O)[C@]21C)OC(C)(C)C[C@H]7O)C[C@@]1(C)[C@@H](CC[C@H]2C4=C[C@@H]5O[C@]6(O[C@](C)(CO)C[C@H]6O)[C@@H](C)[C@]5(O)[C@@]4(C)[C@H](O)C[C@@H]21)C3` as the compound, how does the EC50 (P388) read?
Answer: 2.5 ng/mL (≈ 2.61 nM)

Question: Which results are given for `C[C@@H]1[C@]2(O[C@H]3C=C4[C@@H]5CC[C@H]6Cc7nc8c(nc7C[C@]6(C)[C@H]5C[C@@H](O)[C@]4(C)[C@]31O)C[C@@H]1CC[C@H]3C4=CC[C@@H]5[C@H](C)[C@@]6(OC[C@]45C(=O)C[C@@H]3[C@@]1(C)C8)OC(C)(C)C[C@H]6O)O[C@](C)(CO)C[C@H]2O` [CEPHALOSTATIN 1]?
Answer: GI50 (SF-539): 0.0813 nM; GI50 (UACC-257): 3.71 nM; GI50 (MOLT-4): 0.2 nM; GI50 [1]: 0.0776 nM; GI50 (SN12C): 21.9 nM; GI50 (SW-620): 0.302 nM; GI50 (OVCAR-8): 24 nM; GI50 (KM-20L2): 2 nM; GI50 (COLO 205): 1.7 nM; GI50 (A498): 0.537 nM; GI50 (HCC 2998): 60.3 nM; GI50 (HL-60(TB)): 0.151 nM; GI50 (SK-MEL-5): 3.47 nM; GI50 (EKVX): 43.6 nM; GI50 (SNB-75): 0.0813 nM; GI50 [2]: 0.363 nM; GI50 (OVCAR-3): 30.9 nM; GI50 (HOP-92): 0.724 nM; GI50 (RPMI-8226): 0.0513 nM; GI50 (HOP-62): 0.209 nM; GI50 (CAKI-1): 0.724 nM; GI50 (UO-31): 4.17 nM; GI50 (ACHN): 3.31 nM; GI50 (SF-268): 2.19 nM; GI50 (SNB-19): 1.7 nM; GI50 (KM12): 3.24 nM; GI50 (LOX IMVI): 0.24 nM; GI50 (U-251): 0.0646 nM; GI50 (NCI-H522): 2.4 nM; GI50 (CCRF-CEM): 0.251 nM; GI50 (SK-MEL-28): 0.955 nM; GI50 (SR): 0.288 nM; GI50 (HT-29): 2 nM; GI50 (IGROV-1): 2.19 nM; GI50 (SF-295): 0.0437 nM; GI50 (OVCAR-4): 14.1 nM; GI50 (SK-OV-3): 7.08 nM; GI50 (HCT-116): 0.525 nM; GI50 (M19-MEL): 47.9 nM; GI50 (DLD-1): 8.51 nM; GI50 (TK-10): 93.3 nM; GI50 (K562): 0.427 nM; GI50 (HCT-15): 3.39 nM; GI50 (HOP-18): 0.832 nM; GI50 (Malme-3M): 5.25 nM; GI50 (DMS-273): 0.0525 nM; GI50 (DMS-114): 0.661 nM; GI50 (NCI-H226): 3.24 nM; GI50 (NCI-H23): 0.339 nM; GI50 (XF498): 0.589 nM; GI50 (SNB-78): 0.794 nM; GI50 (NCI-H322M): 33.1 nM; GI50 (A549): 1.1 nM; GI50 (RXF 393): 0.0251 nM; GI50 (UACC-62): 0.389 nM; GI50 (M14): 0.49 nM; GI50 (OVCAR-5): 10 nM; GI50 (NCI-H460): 0.309 nM; GI50 (SK-MEL-2): 0.741 nM

Question: Which EC50 (P388) does the source give for `CO[C@H]1c2nc3c(nc2C[C@@H]2CC[C@H]4C5=C[C@@H]6O[C@]7(O[C@](C)(CO)C[C@H]7O)[C@@H](C)[C@]6(O)[C@@]5(C)[C@H](O)C[C@@H]4[C@]21C)C[C@@]1(C)[C@@H](CC[C@H]2C4=CC[C@@H]5[C@H](C)[C@@]6(OC[C@]45C(=O)C[C@@]21O)OC(C)(C)C[C@H]6O)C3` [CEPHALOSTATIN 10] here?
Answer: 3 ng/mL (≈ 3.13 nM)
